Values quoted from earlier work as cited in patent US9138422B2, “Method of using antimycin A to downregulate Wnt/b-catenin pathway to treat gefitinib resistant cancer” (priority 2011, dated 2015).
Where two headings read alike, the source gives them in different places.

Test system: NSCLC (lung adenocarcinoma) patients
Settings: cited from earlier work

Row | SMILES | median progression free survival (second line treatment after chemotherapy) | median progression free survival (first-line treatment, sensitive EGFR mutated patients)
1 | C#Cc1cccc(Nc2ncnc3cc(OCCOC)c(OCCOC)cc23)c1 [erlotinib] | 2.2 months | –
2 | COc1cc2ncnc(Nc3ccc(F)c(Cl)c3)c2cc1OCCCN1CCOCC1 [gefitinib] | – | about 10 months
